# How the values were obtained:
# [1] = tested on: plasma proteins; test: Binding to plasma proteins (ultrafiltration); type: in vitro ADME, dog; details: presence of NaF+EDTA, 1000 ng/ml
# Protocol: (§1) Solutions of 2-OMe antimycin A3 were diluted with plasma (dog or human) containing NaF+EDTA to final concentrations of 1.0 or 0.2 μg/ml. Controls were diluted with water to the same final concentrations. These preparations were incubated at 37° C. for 20 min, at which time portions were taken and placed in the sample reservoirs of Amicon Centrifree® ultrafiltration systems (Millipore Co., Bedford, Mass.). At 37° C., the filter systems were centrifuged until the reservoirs were dry. From each filtrate, portions were taken for analysis by HPLC. The amounts present were designated as “free drug” (F). The concentrations of the unfiltered solutions were also determined by triplicate analyses. This amount represented the “total drug” concentration (T). The percentage of 2-OMe antimycin A3 bound to plasma proteins was calculated by the following formula: % bound=((T−F)/T)×100
# Similar experiments were performed for 2-OMe antimycin A3 in dog or rat plasma in the absence of NaF/EDTA.
# [2] = tested on: plasma proteins; test: Binding to plasma proteins (ultrafiltration); type: in vitro ADME, mouse; details: presence of NaF+EDTA, 1000 ng/ml
# Protocol: as §1
# [3] = Stability in plasma; type: in vitro ADME, mouse; details: for stability: 37° C., 60 min
# Protocol: (§2) For analysis of samples, two volumes of cold methanol-acetonitrile (50:50, v/v) were added to portions of plasma, culture medium, or cell extract. The preparations were mixed and then centrifuged to obtain clear supernatants, which were dried at room temperature by compressed air. The residues were dissolved in the mobile phase, and a portion was injected onto the HPLC column.
# (§3) The HPLC equipment consisted of a Hewlett Packard 1050 ChemStation with a fluorescence detector (Agilent 100 series). […] The mobile phase was methanol:ammonium acetate buffer (87:13 v/v; 0.2 M; pH 5.8, adjusted with HCl). The flow rate was 1 ml/min. The column elute was monitored fluorometrically at an excitation wavelength of 232 nm and an emission wavelength of 418 nm. The amounts of test compounds present in samples were determined from the peak areas.
# (§4) Samples of mouse, rat, dog, and human plasma were incubated at 37° C. with and without addition of NaF (2.5 mg/ml) and EDTA (1 mg/ml). To these preparations, 2-OMe antimycin A1, 2-OMe antimcyin A2, 2-OMe antimycin A3, or 2-OMe antimycin A5, dissolved in methanol, was added to final concentrations of 500 ng/ml. Portions of plasma, taken at selected times after addition of the 2-OMe antimycin analog, were extracted and analyzed.
# (§5) Similarly, the stability of 2-OMe antimycin A1, 2-OMe antimycin A2, […] in the plasma from mice and humans was evaluated at −80° C. From these preparations, portions were analyzed immediately; other portions were stored at -80° C. and analyzed after 1, 2, and 4 weeks.
# [4] = Stability in plasma; type: in vitro ADME, dog; details: 37° C., 60 min; for stability: presence of NaF/EDTA
# Protocol: as §2, §3, §4
# [5] = tested on: plasma proteins; test: Binding to plasma proteins (ultrafiltration); type: in vitro ADME, rat; details: presence of NaF+EDTA, 1000 ng/ml
# [6] = tested on: plasma proteins; test: Binding to plasma proteins (ultrafiltration); type: in vitro ADME, human; details: presence of NaF+EDTA, 1000 ng/ml
# Protocol: as §1
# [7] = Stability in plasma; type: in vitro ADME, human; details: for stability: 60 min
# Protocol: as §2, §3, §4, §5
# [8] = Stability in plasma; type: in vitro ADME, rat; details: 37° C., 60 min, presence of NaF/EDTA
# Protocol: as §2, §3, §4
# [9] = tested on: RPMI-8226 cells; test: GI50 assay (MTT); type: cell-based, human
# Protocol: RPMI 8226 cells were grown in 96 well plates for 24 h prior to addition of 2-methoxy Antimycins. Antimycin stocks in DMSO were serially diluted in RPMI media. Cells were incubated for 48 h with compounds at final compound concentrations ranging from 10^−4 to 10^−8 M. MTT assays were performed in quadruplicate and percent growth inhibitions were calculated as (A570 (control cells)—A570 (treated cells))/A570 (control cells). The GI50 was extrapolated from semi-log plots of the dose response for each compound. […] After 72 h drug exposures, 1 μCi/ml [^3H]-thymidine was added to wells. Cells were incubated for an additional 24 h, and then transferred to GF/C filter plates (Packard) using a plate washer. Filters were dried, added to scintillant, and counted in a TopCount scintillation counter (Packard). Drug response was expressed as the percentage of vehicle-treated controls, and each value shown as the average of three determinations.
# [10] = biological target: T1, Bcl-xL(ΔC) WT (Homo sapiens, UniProt Q07817); test: Pore-forming activity, calcein release from liposomes; type: biochemical
# T1 construct: inferred from Ni-NTA purification and the pET22b(+) NdeI/XhoI cloning); made in house; host or cells: Escherichia coli BL21(DE3) carrying pUB520
# T1 sequence (Q07817 1-211 limits assumed, stated change not applied): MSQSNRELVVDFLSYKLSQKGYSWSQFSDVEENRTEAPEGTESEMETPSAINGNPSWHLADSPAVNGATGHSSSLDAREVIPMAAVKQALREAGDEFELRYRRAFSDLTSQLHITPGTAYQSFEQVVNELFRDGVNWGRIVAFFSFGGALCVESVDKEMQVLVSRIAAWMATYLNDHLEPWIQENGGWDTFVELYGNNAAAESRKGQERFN
# Protocol: Large unilamellar vesicles composed of 60% dioleoylphophatidylcholine and 40% dioleoylphosphatidylglycerol were prepared by the extrusion method of Mayer et al., supra. Lipid stocks, in chloroform, were mixed and dried under a stream of nitrogen gas. The lipid was resuspended by vortexing for 30 min in a solution of 40 mM calcein (Molecular Probes), 25 mM KCl, and 10 mM KOAc, pH 5.0. After 10 freeze-thaw cycles, the lipid suspension was extruded through two 0.1 μm pore diameter Nucleopore filters. Non-entrapped dye was removed by passage over a Sephadex G10 column (Amersham Biosciences). Lipid concentration was measured using the ammonium ferrothiocyanate method (Stewart, Anal. Biochem. 104:10-14, 1980).
# For pore assays, recombinant truncated Bcl-2 family protein or mutant protein (Bcl-xL(ΔC)) (500 nM) was added to large unilamellar vesicles (60 μM lipid concentration) in 100 mM KCl, 10 mM KOAc, pH 5.0, and fluorescence measured (490 nm excitation, 520 nm emission) with a Fluoromax-3 spectrophotometer. Peptides of the BH3 domain were incubated with the BCl-xL(ΔC) 5 min prior to mixing with liposomes. AA1 was added to liposomes 1 min before adding the Bcl-xL(ΔC) protein. Samples for kinetic assays were analyzed in a thermostatted cuvette at 37° C. with constant stirring. Dose responses were measured in black quartz microplates (Hellma) at room temperature. Calcein release was expressed as percentage of maximum release with detergent lysis (0.1% Triton X-100).
# [11] = biological target: T2, recombinant human Bcl-2ΔC22 (Homo sapiens, UniProt P10415); test: Antimycin A3 fluorescence binding and competition assay; details: 2 μM each, Bcl-2 3 μM, 7.5 minutes, 22.5° C.
# T2 construct: poly-His (N); made in house
# T2 sequence (P10415 1-217 limits assumed, stated change not applied): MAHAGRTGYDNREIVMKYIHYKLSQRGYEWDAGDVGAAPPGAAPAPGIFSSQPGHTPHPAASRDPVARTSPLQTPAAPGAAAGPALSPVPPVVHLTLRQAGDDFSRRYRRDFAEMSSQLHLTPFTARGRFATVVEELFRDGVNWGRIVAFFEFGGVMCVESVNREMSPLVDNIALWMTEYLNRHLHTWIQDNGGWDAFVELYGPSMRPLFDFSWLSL
# Protocol: In this assay, 0 to 5 μM antimycin A3 (Sigma Chemical Co., St. Louis, Mo.) was added to a physiological buffer (50 mM Tris-HCl pH 8.0, 0.2 M NaCl, 2 mM EDTA, 0.5% v/v glycerol) containing recombinant Bcl-2 or BCl-xL protein under conditions that permitted antimycin A3 to bind to the BH3-binding domain of Bcl-2 or BCl-xL (22.5° C. on a Hitachi F-2500 fluorescence spectrofluorimeter equipped with a thermostatted cell holder). […] The excitation wavelength was 335 nm, and the maximum emission wavelength for antimycin A3 was 428 nm with a slit width of 10 nm. The samples were mixed in a quartz cuvette and checked for inner filter effect over the concentration range of antimycin A3 used for this study. Blanks containing antimycin A3 at the same concentration as the experimental samples were used as controls in all measurements and necessary background corrections were made.
# Recombinant human Bcl-2ΔC22 (a recombinant human Bcl-2 with a delection of 22 amino acid residue membrane anchor sequence from the carboxyl end) and mouse Bcl-xLΔC20 (a recombinant murine BCl-xL with a delection of the 20 amino acid residue membrane anchor sequence from the carboxyl end) fused with poly-His at the N-terminus were chromatographically purified to homogeneity. The concentrations of antimycin A3 and stock solutions of recombinant proteins were quantitated using an extinction coefficient of 7.24/mM/cm at 320 nm and by Bradford assay, respectively. The stoichiometric ratio of antimycin A3 and Bcl-2 producing the maximal change in antimycin A3 fluorescence was determined with incremental addition of antimycin A3 to a 1.98 μM solution of recombinant Bcl-2 in a volume of 2.1 milliliters. […] For peptide displacement experiments, a solution of 2 μM antimycin A3 and 3 μM Bcl-2 was allowed to reach binding equilibrium at 4° C. prior to fluorescence measurements. Native peptide corresponding to the BH3 domain of Bak (72-[…]87 (SEQ ID NO:1)) or a mutant peptide with a single amino acid change (Leu78Ala-BH3) was added to the solution and the fluorescence measurements were repeated. […]
# [12] = tested on: TABX2S cells (over-expressing Bcl-xL); test: cells
# From the text: Briefly, a DNA fragment encoding the full-length mouse BCl-xL cDNA was isolated from the plasmid PBS.BCL-xL (Tzung et al., Am. J. Path. 150:1985-1995, 1997, incorporated herein by reference in its entirety) by digestion with the restriction endonuclease EcoRI. This EcoRI fragment was cloned into the EcoRI site of the mammalian expression vector pSFFV (Fuhlbrigge et al., Proc. Nat. Acad. Sci. USA 85:5649-5653, 1988) in both sense and antisense orientations, to form expression plasmids pSFFV.Bcl-xL(sense) or pSFFV.Bcl-xL(antisense), respectively. The tumorigenic murine hepatocyte cell line TAMH was transfected by lipofection (Lipofectamine, Life Technologies, Rockville, Md., according to the manufacturer's recommendations) with the plasmids pSFFV.neo (the control), pSFFV.Bcl-xL(sense) or pSFFV.Bcl-xL(antisense). […] Transfectants were selected for the acquisition of neomycin resistance by growing cells in the presence of 750 μg/ml of G418. Bulk transfectants were cloned by limiting dilution and individual clones were screened by immunoblot analysis to determine the level of BCl-xL protein expression as described below.
# Selected transfectants were then tested for whole cell sensitivity to several apoptotic agents. Transfected cells were cultured to reach approximately 80% confluency prior to plating an equal number of cells from selected clones on 12-well tissue culture plates. The transplanted cells were treated with the following apoptotic agents: 5 μM doxorubicin for 48 hours; 5 μM cisplatin for 48 hours; or with 200 U/ml tumor necrosis factor (TNF) plus 1 μg/ml actinomycin D for 18 hours. Cell viability was determined by trypan blue dye exclusion. The percentage of viable cells was calculated by the number of viable cells (treated with a particular apoptogenic agent) divided by the number in the control group (untreated).
# TABX2S cells and TABX1A cells were also examined for the effects of various mitochondrial inhibitors. […] Azide was diluted from an aqueous stock solution. […] Controls received an equivalent concentration of diluent. At various time points after drug treatment, cells were trypsinized, and cell viability was determined by trypan blue dye exclusion. The number of viable cells were counted and normalized to control group (i.e., % control=number of viable cells (treated group)/number of viable cells (control group)×100).
Structure (SMILES),"Protein binding, Dog [1]","Protein binding, Mouse [2]",stability ([3]; presence of NaF/EDTA),"amounts remaining after 4 weeks ([3]; -80° C., presence of NaF/EDTA)","amounts remaining after 4 weeks ([3]; −80° C., absence of NaF/EDTA)",stability [4],"Protein binding, Rat [5]","Protein binding, Human [6]","stability ([7]; 37° C., presence of NaF/EDTA)","amounts remaining after 4 weeks ([7]; -80° C., presence of NaF/EDTA)","amounts remaining after 4 weeks ([7]; −80° C., absence of NaF/EDTA)",stability [8],"activity relative to 2-OMeA1, 2-OMeA2 and 2-OMeA3 (GI50) [9]",effect on Bcl-xL pore-forming activity [10],competition with antimycin A3 for Bcl-2 [11],difference in sensitivity of the two cell lines ([12]; TABX2S vs TABX1A),"time until cell death apparent ([12]; after treatment, TABX2S and TABX1A cells)","added amount remaining ([4]; absence of NaF/EDTA, 500 ng/ml)","decrease in concentration ([7]; 37° C., presence of NaF/EDTA)","GI50 ([9]; 48 h, MTT)"
"CC[C@H]1C(=O)O[C@H](C)[C@H](NC(=O)c2cccc(NC=O)c2OC)C(=O)O[C@@H](C)[C@@H]1OC(=O)CC(C)C [2-OMeA5, 2-OMe antimycin A5]",99.1%,99.7%,notable decreases in concentration,63%,27%,stable,>99.9%,99.6%,stable,92%,79%,notable decreases in concentration,approximately ⅓,–,–,–,–,–,–,–
CCCC[C@H]1C(=O)O[C@H](C)[C@H](NC(=O)c2cccc(NC=O)c2OCC(=O)c2ccccc2)C(=O)O[C@@H](C)[C@@H]1OC(=O)CC(C)C [phenacyl ether antimycin A3],–,–,–,–,–,–,–,–,–,–,–,–,–,no effect,did not displace antimycin A3,–,–,–,–,–
CC(C)[C@@H]1NC(=O)[C@H](C)OC(=O)[C@@H](C(C)C)NC(=O)[C@@H](C(C)C)OC(=O)[C@H](C(C)C)NC(=O)[C@H](C)OC(=O)[C@@H](C(C)C)NC(=O)[C@@H](C(C)C)OC(=O)[C@H](C(C)C)NC(=O)[C@H](C)OC(=O)[C@@H](C(C)C)NC(=O)[C@@H](C(C)C)OC1=O [valinomycin],–,–,–,–,–,–,–,–,–,–,–,–,–,–,–,no significant differences,six to eight,–,–,–
"CCCCCC[C@H]1C(=O)O[C@H](C)[C@H](NC(=O)c2cccc(NC=O)c2OC)C(=O)O[C@@H](C)[C@@H]1OC(=O)CCC [2-OMeA2, 2-methoxy antimycin A2]",99.9%,99.7%,generally stable,77%,63%,generally stable,99.9%,>99.9%,generally stable,83%,70%,generally stable,–,–,–,–,–,53%,18%,12.2 µM

# — US20050239873A1 (priority 1999, published 2005)
